Measurements published in patent US20160053316A1, “Systems and Methods for Determining a C-Peptide Receptor, C-Peptide Receptor, and Methods of Using Same” (Saint Louis University, priority 2012, published 2016).

Key:
KATOIII cells = test: C-peptide-induced cFos mRNA expression (RT-PCR) in KATOIII cells; format: cell-based, human
Protocol: In utilizing the methodology to determine a C-peptide receptor, three human cell lines were determined (101) to respond to treatment with C-peptide with an up regulation of cFos message as determined by RT-PCR. These three were KATOIII (Human Stomach Carcinoma), HEK 293 (human embryonic kidney cells) and TF-1 (an erythroleukemia cell line). The results of tests to show responsiveness are provided graphically in FIGS. 2, 3, and 4. When these three cell lines were screened for the expression of known orphan GPCRs (103), 24 of the approximately 125 orphan GPCRs were expressed by all three cell types as indicated by the table of FIG. 5. Using bioinformatics, the pool of FIG. 5 can be narrowed (105) by eliminating any candidates already matched to other ligands or that had significant homology to GPCRs that bind to non-peptide targets (15 in this case). […] One GPCR (GPR107) could be eliminated as it was recently determined that this was the cognate receptor for neurostatin. […]
To evaluate whether anti-GPR146ex-induced enhancement of receptor capping and co-localization corresponded with an increase in C-peptide-induced cFos expression, KATOIII cells were treated with either vehicle (control media), 1 nM C-peptide, anti-GPR146ex (1:500), or anti-GPR146ex and 1 nM C-peptide for one hour at 37 degrees Celsius. […] Changes in cFos mRNA expression were evaluated using real time PCR (RT-PCR).

HEK293 cells = test: C-peptide-induced cFos mRNA expression (RT-PCR) in HEK293 cells; format: cell-based, human; settings: treatment with C-peptide (FIG. 3)
Protocol: (§1) In utilizing the methodology to determine a C-peptide receptor, three human cell lines were determined (101) to respond to treatment with C-peptide with an up regulation of cFos message as determined by RT-PCR. These three were KATOIII (Human Stomach Carcinoma), HEK 293 (human embryonic kidney cells) and TF-1 (an erythroleukemia cell line). The results of tests to show responsiveness are provided graphically in FIGS. 2, 3, and 4. When these three cell lines were screened for the expression of known orphan GPCRs (103), 24 of the approximately 125 orphan GPCRs were expressed by all three cell types as indicated by the table of FIG. 5. Using bioinformatics, the pool of FIG. 5 can be narrowed (105) by eliminating any candidates already matched to other ligands or that had significant homology to GPCRs that bind to non-peptide targets (15 in this case). This is also shown in FIG. 5 with the items that are eliminated darkened. One GPCR (GPR107) could be eliminated as it was recently determined that this was the cognate receptor for neurostatin. This also allowed it to be used as a convenient control as evidenced later herein.

GPR146 = target: T1, GPR146 (Homo sapiens, UniProt Q96CH1); test: cFos response to C-peptide in siRNA-transfected KATOIII cells; format: cell-based; settings: 1 nmole C-peptide
T1 construct: endogenous in cells; host or cells: KATOIII (human stomach carcinoma)
Protocol: Once the hierarchical candidates were identified and ranked, KATOIII cells were then transfected with siRNA (Integrated DNA technologies) (111) directed against either GPR107 (control), GPR146 (most likely candidate not yet tested) or eGFP (green fluorescent protein-control) using […] (Invitrogen). Five hours later, the media was changed to serum free control media (ATCC) and the serum was starved overnight. Twenty-four (24) hours after transfection with siRNA, cells were treated with 1 nmole C-peptide (Phoenix Pharmaceuticals) for 1 hour, then lysed and RNA were isolated using an RNeasy Kit (Qiagen). RNA was used as a template from the production of cDNA, and changes in cFos expression were determined using RT-PCR (BioRad 2x iQ SyberGreen Master Mix, using a BioRad CFX real time system). […] As this produced the desired negative response (113), GPR146 was the target GPCR (115). The receptiveness of GPR146 to C-peptide has since been verified by additional conventional tests.

TF-1 cells = test: C-peptide-induced cFos mRNA expression (RT-PCR) in TF-1 cells; format: cell-based, human; settings: treatment with C-peptide (FIG. 4)
Protocol: as §1

T1 sequence (Q96CH1 whole entry): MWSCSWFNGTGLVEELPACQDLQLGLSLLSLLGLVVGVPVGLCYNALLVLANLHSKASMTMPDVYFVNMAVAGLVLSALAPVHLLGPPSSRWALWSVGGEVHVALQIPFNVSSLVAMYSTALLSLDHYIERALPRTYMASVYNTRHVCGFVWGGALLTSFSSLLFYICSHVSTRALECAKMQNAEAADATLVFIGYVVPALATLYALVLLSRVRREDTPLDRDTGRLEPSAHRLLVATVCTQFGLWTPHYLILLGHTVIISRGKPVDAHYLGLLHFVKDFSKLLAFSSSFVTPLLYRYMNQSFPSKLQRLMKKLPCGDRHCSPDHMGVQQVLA

cFos expression (GPR146; KATOIII cells transfected with Vehicle, GPR107 siRNA or eGFP siRNA (controls), 1 hour): increase in cFos
cFos expression (GPR146; KATOIII cells with GPR146 compromised by siRNA, 1 hour (FIG. 6)): failed to respond
Substance: C-peptide
cFos mRNA expression, material alone (KATOIII cells; one hour at 37 degrees Celsius, 1 nM C-peptide or anti-GPR146ex 1:500 alone (FIG. 7)): increased cFos
cFos mRNA expression (KATOIII cells; treatment with C-peptide (FIG. 2)): increase in cFos mRNA expression
cFos mRNA expression (HEK293 cells): increase in cFos mRNA expression
cFos mRNA expression (TF-1 cells): increase in cFos mRNA expression
